Experimental data reported in patent US20020099073A1, “Modulators of protein tyrosine phosphatases (PTPases)” (priority 2000, published 2002).

What follows are compounds tested against T1, truncated form of PTP1B (corresponding to the first 321 amino acids) (Homo sapiens, UniProt P18031) (assay: Inhibition of PTP1B, p-nitrophenyl phosphate substrate). Settings: substrate p-nitrophenyl phosphate 0.16 to 10 mM; 100 mM sodium acetate pH 5.5; 25° C. for 60 minutes; absorbance at 405 nm.
T1 construct: truncated form of PTP1B (corresponding to the first 321 amino acids); made in house; host or cells: E. coli
T1 sequence (P18031 1-321): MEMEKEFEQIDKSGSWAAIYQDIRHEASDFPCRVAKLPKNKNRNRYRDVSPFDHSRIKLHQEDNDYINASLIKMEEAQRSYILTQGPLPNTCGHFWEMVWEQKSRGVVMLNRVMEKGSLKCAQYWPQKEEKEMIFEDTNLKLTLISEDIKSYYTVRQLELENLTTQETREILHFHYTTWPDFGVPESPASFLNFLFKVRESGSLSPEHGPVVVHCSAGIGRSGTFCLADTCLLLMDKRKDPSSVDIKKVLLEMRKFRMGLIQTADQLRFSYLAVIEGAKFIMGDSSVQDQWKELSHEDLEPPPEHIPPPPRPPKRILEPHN
Type: biochemical
Experimental: The compounds are evaluated for biological activity with a truncated form of PTP1B (corresponding to the first 321 amino acids), which was expressed in E. coli and purified to apparent homogeneity using published procedures well-known to those skilled in the art. The enzyme reactions are carried out using standard conditions essentially as described by Burke et al. (Biochemistry 35; 15989-15996 (1996)). The assay conditions are as follows. Appropriate concentrations of the compounds of the invention are added to the reaction mixtures containing different concentrations of the substrate, p-nitrophenyl phosphate (range: 0.16 to 10 mM—final assay concentration). The buffer used was 100 mM sodium acetate pH 5.5, 50 mM sodium chloride, 0.1% (w/v) bovine serum albumin and 5 mM dithiothreitol (total volume […]). The reaction was started by addition of the enzyme and carried out in microtiter plates at 25° C. for 60 minutes. The reactions are stopped by addition of NaOH. The enzyme activity was determined by measurement of the absorbance at 405 nm with appropriate corrections for absorbance at 405 nm of the compounds and p-nitrophenyl phosphate. The data are analyzed using nonlinear regression fit to classical Michaelis Menten enzyme kinetic models. Inhibition is expressed as Ki values in μM.

Row | Compound | Ki [µM]
1 | 5-(Benzyloxycarbonylamino-methyl)-2-(oxalyl-amino)-4,5,6,7-tetrahydro-thieno[2,3-c]pyridine-3-carboxylic acid and 7-(benzyloxycarbonylamino-methyl)-2-(oxalyl-amino)-4,5,6,7-tetrahydro-thieno[2,3-c]pyridine-3-carboxylic Acid [Example 17] | 1.5
2 | O=C(O)C(=O)Nc1sc2c(c1C(=O)O)CC(CNC(=O)c1ccccc1)NC2 (centres unmarked) [Example 1, 5-(Benzoylamino-methyl)-2-(oxalyl-amino)-4,5,6,7-tetrahydro-thieno[2,3-c]Pyridine-3-carboxylic Acid] | 0.52
3 | COc1ccc(CN2Cc3sc(NC(=O)C(=O)O)c(C(=O)O)c3CC2CNC(=O)c2cc(-c3ccc(C)cc3)nc3ccc(Br)cc23)cc1 (centres unmarked) [Example 2, 5-(((6-Bromo-2-p-tolyl-quinoline-4-carbonyl)amino)methyl)-6-(4-methoxy-benzyl)-2-(oxalyl-amino)-4,5,6,7-tetrahydro-thieno[2,3-c]pyridine-3-carboxylic Acid] | 100
4 | COc1ccc(CN2Cc3sc(NC(=O)C(=O)O)c(C(=O)O)c3CC2CNC(=O)c2cc3cc(OCc4ccccc4)ccc3[nH]2)cc1 (centres unmarked) [Example 3, 5-(((5-Benzyloxy-1H-indole-2-carbonyl)amino)methyl)-6-(4-methoxy-benzyl)-2-(oxalyl-amino)-4,5,6,7-tetrahydro-thieno[2,3-c]pyridine-3-carboxylic Acid] | 4.3
5 | COc1ccc(CN2Cc3sc(NC(=O)C(=O)O)c(C(=O)O)c3CC2CNC(=O)c2ccc(NC(=O)c3ccccc3)cc2)cc1 (centres unmarked) [Example 4] | 3
6 | COc1ccc(CN2Cc3sc(NC(=O)C(=O)O)c(C(=O)O)c3CC2CNC(=O)c2nn(-c3ccccc3)nc2C)cc1 (centres unmarked) [Example 6, 6-(4-Methoxy-benzyl)-5-(((5-methyl-2-phenyl-2H-[1,2,3]triazole-4-carbonyl)-amino)methyl)-2-(oxalyl-amino)-4,5,6,7-tetrahydro-thieno[2,3-c]pyridine-3-carboxylic Acid] | 20
7 | Cc1nn(-c2ccccc2)nc1C(=O)NCC1Cc2c(sc(NC(=O)C(=O)O)c2C(=O)O)CN1 (centres unmarked) [Example 11, 5-(((5-Methyl-2-phenyl-2H-[1,2,3]triazole-4-carbonyl)amino]methyl)-2-(oxalyl-amino)-4,5,6,7-tetrahydro-thieno[2,3-c]pyridin-3-carboxylic Acid] | 1.5
8 | O=C(O)C(=O)Nc1sc2c(c1C(=O)O)CC(CNC(=O)c1cc3ccccc3[nH]1)NC2 (centres unmarked) [Example 14] | 0.67
9 | COc1ccc(CN2Cc3sc(NC(=O)C(=O)O)c(C(=O)O)c3CC2CNC(=O)c2cccc3ccccc23)cc1 (centres unmarked) [Example 16, 6-(4-Methoxybenzyl)-5-(((naphthalene-1-carbonyl)amino)methyl)-2-(oxalyl-amino)-4,5,6,7-tetrahydro-thieno[2,3-c]pyridine-3-carboxylic Acid] | 20
10 | O=C(O)C(=O)Nc1sc2c(c1C(=O)O)CC(CNC(=O)c1ccccc1O)NC2 (centres unmarked) [Example 18, 5-((2-Hydroxy-benzoylamino)-methyl)-2-(oxalyl-amino)-4,5,6,7-tetrahydro-thieno[2,3-c]pyridine-3-carboxylic Acid] | 0.68
11 | O=C(O)C(=O)Nc1sc2c(c1C(=O)O)CC(CNC(=O)c1cccc(O)c1)NC2 (centres unmarked) [Example 19, 5-((3-Hydroxy-benzoylamino)methyl)-2-(oxalyl-amino)-4,5,6,7-tetrahydro-thieno[2,3-c]Pyridine-3-carboxylic Acid] | 0.95
12 | O=C(O)C(=O)Nc1sc2c(c1C(=O)O)C[C@H](CNC(=O)c1ccc(NC(=O)c3ccccc3)cc1)NC2 [Example 22, 5-(R)-((4-Benzoylamino-benzoylamino)methyl)-2-(oxalyl-amino)-4,5,6,7-tetrahydro-thieno[2,3-c]pyridine-3-carboxylic Acid] | 3.2
13 | CC(=O)Nc1ccc(S(=O)(=O)NC[C@H]2Cc3c(sc(NC(=O)C(=O)O)c3C(=O)O)CN2)cc1 [Example 28, 5-(R)-((4-Acetylamino-benzenesulfonylamino)methyl)-2-(oxalyl-amino)-4,5,6,7-tetrahydro-thieno[2,3-c]pyridine-3-carboxylic Acid] | 3.5

Stronger by Ki, values ahead:

Row | Ki [µM] | Compound
14 | 0.25 | O=C(O)C(=O)Nc1sc2c(c1C(=O)O)CC(CNC(=O)c1ccc(NC(=O)c3ccccc3)cc1)NC2 (centres unmarked) [Example 5, 5-((4-Benzoylamino-benzoylamino)methyl)-2-(oxalyl-amino)-4,5,6,7-tetrahydro-thieno[2,3-c]pyridine-3-carboxylic Acid]
15 | 0.22 | O=C(O)C(=O)Nc1sc2c(c1C(=O)O)CC(CNC(=O)c1ccc(-c3ccccc3)cc1)NC2 (centres unmarked) [Example 9, 5-(((Biphenyl-4-carbonyl)amino)methyl)-2-(oxalyl-amino)-4,5,6,7-tetrahydro-thieno[2,3-c]pyridine-3-carboxylic Acid]
16 | 0.34 | CCOc1ccc(C(=O)NCC2Cc3c(sc(NC(=O)C(=O)O)c3C(=O)O)CN2)c(O)c1 (centres unmarked) [Example 10, 5-((4-Ethoxy-2-hydroxy-benzoylamino)methyl)-2-(oxalyl-amino)-4,5,6,7-tetrahydro-thieno[2,3-c]pyridine-3-carboxylic Acid]
17 | 0.27 | O=C(O)C(=O)Nc1sc2c(c1C(=O)O)C[C@@H](CNC(=O)c1cccc(Oc3ccccc3)c1)NC2 [Example 20, 2-(Oxalyl-amino)-5-(S)-((3-phenoxy-benzoylamino)methyl)-4,5,6,7-tetrahydro-thieno[2,3-c]pyridine-3-carboxylic Acid]
18 | 0.16 | O=C(O)C(=O)Nc1sc2c(c1C(=O)O)C[C@@H](CNC(=O)c1ccc(NC(=O)c3ccccc3)cc1)NC2 [Example 21, 5-((4-Benzoylamino-benzoylamino)methyl)-2-(oxalyl-amino)-4,5,6,7-tetrahydro-thieno[2,3-c]pyridine-3-carboxylic Acid]
19 | 0.15 | O=C(O)C(=O)Nc1sc2c(c1C(=O)O)C[C@@H](CNC(=O)c1ccc3ccccc3c1O)NC2 [Example 23, 5-(S)-(((1-Hydroxy-naphthalene-2-carbonyl)amino)methyl)-2-(oxalyl-amino)-4,5,6,7-tetrahydro-thieno[2,3-c]pyridine-3-carboxylic Acid]
20 | 0.22 | O=C(O)C(=O)Nc1sc2c(c1C(=O)O)C[C@@H](CNC(=O)c1cc3ccccc3cc1O)NC2 [Example 24, 5-(S)-(((3-Hydroxy-naphthalene-2-carbonyl)amino)methyl)-2-(oxalyl-amino) 4,5,6,7-tetrahydro-thieno[2,3-c]pyridine-3-carboxylic Acid]
21 | 0.21 | COc1ccc2cc(O)c(C(=O)NC[C@@H]3Cc4c(sc(NC(=O)C(=O)O)c4C(=O)O)CN3)cc2c1 [Example 25, 5-(S)-(((3-Hydroxy-7-methoxy-naphthalene-2-carbonyl)amino)methyl)-2-(oxalyl-amino)-4,5,6,7-tetrahydro-thieno[2,3-c]pyridine-3-carboxylic Acid]
22 | 0.2 | O=C(NC[C@@H]1Cc2c(sc(NC(=O)C(=O)O)c2C(=O)O)CN1)Nc1ccc(Oc2ccccc2)cc1 [Example 27, 2-(Oxalyl-amino)-5-(S)-(3-(4-phenoxy-phenyl)ureidomethyl)-4,5,6,7-tetrahydro-thieno[2,3-c]pyridin-3-carboxylic Acid]
23 | 0.13 | CC(=O)Nc1ccc(S(=O)(=O)NC[C@@H]2Cc3c(sc(NC(=O)C(=O)O)c3C(=O)O)CN2)cc1 [Example 29, 5-(S)-((4-Acetylamino-benzenesulfonylamino)methyl)-2-(oxalyl-amino)-4,5,6,7-tetrahydro-thieno[2,3-c]pyridine-3-carboxylic Acid]
